Values after ≈ are worked out from the molar mass of the structure shown.

Type in all cases: cell-based
One experiment relates to L.pneumophila gr. 4. Description: microbe, parasite or virus in culture. The note with it: Legionella pneumophila, GR.4, 48 h, pH 6.
In a further experiment the test system is Myxococcus xanthus. The experiment is described as follows: MIC determination on casitone agar (Example III). The note with it: 96 h, pH 7.6, casitone agar pH 7,6, four days, 30°C.
A further experiment concerns L.jordanis. Description: microbe, parasite or virus in culture. The settings on record: pH 6; 48 hours; 37°C.
A further experiment deals with L.longbeachae gr. 2. Description: microbe, parasite or virus in culture. The note with it: pH 6; 48 hours; 37°C.
The next experiment concerns L.pneumophila gr. 2. Description: microbe, parasite or virus in culture. The note with it: Legionella pneumophila, GR.2, 48 h, pH 6.
Another experiment relates to L.wadsworthii. Description: microbe, parasite or virus in culture. The settings on record: pH 6; 48 hours; 37°C.
A further experiment deals with L.pneumophila gr. 5. The experiment is described as follows: microbe, parasite or virus in culture. The note with it: Legionella pneumophila, GR.5, 48 h, pH 6.
The next experiment has as its system L.gormanii. The experiment is described as follows: MIC determination on buffered charcoal yeast-extract agar (Example I). The settings on record: Fluoribacter gormanii, pH 6,9, 48 hours, 37°C.
Another experiment deals with L.longbeachae gr. 1. Description: microbe, parasite or virus in culture. The settings on record: pH 6; 48 hours; 37°C.
In a further experiment the test system is L.bozemanii gr. 1. The experiment is described as follows: microbe, parasite or virus in culture. The note with it: pH 6; 48 hours; 37°C.
Another experiment deals with L.dumoffii. Description: microbe, parasite or virus in culture. The settings on record: pH 6; 48 hours; 37°C.
The test system of the next experiment is L.pneumophila gr. 6. The experiment is described as follows: microbe, parasite or virus in culture. The settings on record: Legionella pneumophila, GR.6, 48 h, pH 6.
A further experiment has as its system L.oakridgensis. Description: microbe, parasite or virus in culture. The note with it: pH 6; 48 hours; 37°C.
In a further experiment the test system is L.pneumophila gr. 9. Description: microbe, parasite or virus in culture. The settings on record: Legionella pneumophila, GR.9, 48 h, pH 6.
A further experiment deals with L.pneumophila gr. 7. The experiment is described as follows: microbe, parasite or virus in culture. The settings on record: Legionella pneumophila, GR.7, 48 h, pH 6.
The subject of another experiment is L.pneumophila gr. 8. Description: microbe, parasite or virus in culture. The note with it: Legionella pneumophila, GR.8, 48 h, pH 6.
The next experiment concerns L.micdadei. Description: microbe, parasite or virus in culture. The note with it: pH 6; 48 hours; 37°C.
The test system of another experiment is L.pneumophila gr.10. Description: microbe, parasite or virus in culture. The settings on record: Legionella pneumophila, GR.10, 48 h, pH 6.
Another experiment has as its system L.pneumophila gr. 3. The experiment is described as follows: microbe, parasite or virus in culture. The note with it: Legionella pneumophila, GR.3, 48 h, pH 6.
Experiment [1] concerns Legionella pneumophila gr. 1. Description: microbe, parasite or virus in culture. The settings on record: GR.1, 96 h, pH 6.
In experiment [2] the test system is Legionella pneumophila gr. 5. The experiment is described as follows: microbe, parasite or virus in culture. The settings on record: GR.5, 96 h, pH 6.

On to `Clc1ccccc1C(c1ccccc1)(c1ccccc1)n1ccnc1` [clotrimazole], for which the MIC against L.pneumophila gr. 4 turned out to be 16 µg/mL (≈ 46.4 µM); against Myxococcus xanthus, 2 µg/mL (≈ 5.8 µM); with L.jordanis it was 16 µg/mL (≈ 46.4 µM); against L.longbeachae gr. 2, 16 µg/mL (≈ 46.4 µM); in the experiment with L.pneumophila gr. 2, 16 µg/mL (≈ 46.4 µM); in the experiment on L.wadsworthii, 8 µg/mL (≈ 23.2 µM). For the same compound, the MIC in the experiment with L.pneumophila gr. 5 was determined as 16 µg/mL (≈ 46.4 µM); against L.gormanii, 8 µg/mL (≈ 23.2 µM); against L.longbeachae gr. 1, 16 µg/mL (≈ 46.4 µM); against L.bozemanii gr. 1 it was 8 µg/mL (≈ 23.2 µM); with L.dumoffii, 16 µg/mL (≈ 46.4 µM); with L.pneumophila gr. 6, 16 µg/mL (≈ 46.4 µM). The MIC was 8 µg/mL (≈ 23.2 µM) with L.oakridgensis; 16 µg/mL (≈ 46.4 µM) in the experiment on L.pneumophila gr. 9; 16 µg/mL (≈ 46.4 µM) in the experiment on L.pneumophila gr. 7; 16 µg/mL (≈ 46.4 µM) in the experiment on L.pneumophila gr. 8; 16 µg/mL (≈ 46.4 µM) in the experiment with L.micdadei; 16 µg/mL (≈ 46.4 µM) against L.pneumophila gr.10. Moreover, the MIC against L.pneumophila gr. 3 amounted to 8 µg/mL (≈ 23.2 µM).

On to `CCCCCCCCCCCCCN1CC(C)OC(C)C1` (stereo not drawn) [tridemorph], for which the MIC in experiment [1] was 100 µg/mL (≈ 336 µM); in [2], 50 µg/mL (≈ 168 µM).

Regarding `c1ccc(-c2ccc(C(c3ccccc3)n3ccnc3)cc2)cc1` (stereo not drawn) [bifonazole], the MIC against L.pneumophila gr. 4 was 128 µg/mL (≈ 412 µM); against L.jordanis, 64 µg/mL (≈ 206 µM); against L.longbeachae gr. 2, 64 µg/mL (≈ 206 µM); in the experiment with L.pneumophila gr. 2, 128 µg/mL (≈ 412 µM); against L.wadsworthii, 32 µg/mL (≈ 103 µM); in the experiment on L.pneumophila gr. 5, 64 µg/mL (≈ 206 µM). The MIC in the experiment on L.gormanii turned out to be 128 µg/mL (≈ 412 µM); in the experiment with L.longbeachae gr. 1, 64 µg/mL (≈ 206 µM); against L.bozemanii gr. 1, 128 µg/mL (≈ 412 µM); in the experiment with L.dumoffii, 64 µg/mL (≈ 206 µM); in the experiment on L.pneumophila gr. 6, 64 µg/mL (≈ 206 µM); in the experiment on L.oakridgensis it was 64 µg/mL (≈ 206 µM). Besides, the MIC in the experiment with L.pneumophila gr. 9 was found to be 128 µg/mL (≈ 412 µM); against L.pneumophila gr. 7, 128 µg/mL (≈ 412 µM); in the experiment on L.pneumophila gr. 8 it was 128 µg/mL (≈ 412 µM); with L.micdadei, 64 µg/mL (≈ 206 µM); against L.pneumophila gr.10, 128 µg/mL (≈ 412 µM); in the experiment on L.pneumophila gr. 3, 128 µg/mL (≈ 412 µM).

As to `OC(c1ccc(Cl)cc1)(c1cncnc1)c1ccccc1Cl` (stereo not drawn) [fenarimol], the MIC in experiment [1] and in experiment [2] was 100 µg/mL (≈ 302 µM) throughout.

With `Clc1ccc(COC(Cn2ccnc2)c2ccc(Cl)cc2Cl)c(Cl)c1` (stereo not drawn) [miconazole], the MIC against L.pneumophila gr. 4 was found to be 128 µg/mL (≈ 308 µM); with Myxococcus xanthus it was 2 µg/mL (≈ 4.81 µM); with L.jordanis it was 128 µg/mL (≈ 308 µM); in the experiment with L.longbeachae gr. 2 it was 128 µg/mL (≈ 308 µM); in the experiment with L.pneumophila gr. 2, 128 µg/mL (≈ 308 µM); against L.wadsworthii, 128 µg/mL (≈ 308 µM). Moreover, the MIC against L.pneumophila gr. 5, in the experiment on L.gormanii, in the experiment on L.longbeachae gr. 1, in the experiment with L.bozemanii gr. 1, against L.dumoffii and in the experiment on L.pneumophila gr. 6 was 128 µg/mL (≈ 308 µM) throughout. Further, the MIC came out at 64 µg/mL (≈ 154 µM) against L.oakridgensis; 128 µg/mL (≈ 308 µM) against L.pneumophila gr. 9; 128 µg/mL (≈ 308 µM) against L.pneumophila gr. 7; 128 µg/mL (≈ 308 µM) against L.pneumophila gr. 8; 128 µg/mL (≈ 308 µM) against L.micdadei; 128 µg/mL (≈ 308 µM) against L.pneumophila gr.10. Moreover, the MIC against L.pneumophila gr. 3 amounted to 128 µg/mL (≈ 308 µM).

Consider `CCC1COC(Cn2cncn2)(c2ccc(Cl)cc2Cl)O1` (stereo not drawn) [etaconazole], for which the MIC in experiment [1] and in experiment [2] was more than 100 µg/mL throughout.

As for `Clc1ccccc1C(c1ccc(-c2ccccc2)cc1)n1ccnc1` (stereo not drawn) [lombazole], the MIC against L.pneumophila gr. 4 was 128 µg/mL (≈ 371 µM); in the experiment on Myxococcus xanthus, 2 µg/mL (≈ 5.8 µM); against L.jordanis, 64 µg/mL (≈ 186 µM); against L.longbeachae gr. 2, 64 µg/mL (≈ 186 µM); in the experiment on L.pneumophila gr. 2, 128 µg/mL (≈ 371 µM); against L.wadsworthii it was 32 µg/mL (≈ 92.8 µM). The MIC is 64 µg/mL (≈ 186 µM) in the experiment on L.pneumophila gr. 5; 64 µg/mL (≈ 186 µM) in the experiment with L.gormanii; 64 µg/mL (≈ 186 µM) in the experiment on L.longbeachae gr. 1; 128 µg/mL (≈ 371 µM) against L.bozemanii gr. 1; 64 µg/mL (≈ 186 µM) against L.dumoffii; 64 µg/mL (≈ 186 µM) in the experiment with L.pneumophila gr. 6. Also, the MIC in the experiment with L.oakridgensis stood at 64 µg/mL (≈ 186 µM); against L.pneumophila gr. 9, 128 µg/mL (≈ 371 µM); against L.pneumophila gr. 7 it was 128 µg/mL (≈ 371 µM); in the experiment with L.pneumophila gr. 8, 128 µg/mL (≈ 371 µM); against L.micdadei, 64 µg/mL (≈ 186 µM); against L.pneumophila gr.10, 64 µg/mL (≈ 186 µM). This compound also yielded an MIC against L.pneumophila gr. 3 of 128 µg/mL (≈ 371 µM).

Values taken from EP0228113A2 (priority 1985, dated 1987).
